Assay results as given in patent US20110065663A1, “ANTI-CANCER COMBINATION THERAPY” (Katholieke Universiteit Leuven, K.U. Leuven R&D, priority 2008, published 2011).

What was measured:
[1] = target: T1, E. coli TP (Escherichia coli, UniProt P07650); test: Enzyme activity assay with recombinant E. coli TP (positive control); type: biochemical; settings: 0.025 U TP, 200 μM substrate
T1 construct: purchased Sigma
Procedure: (§1) The TP activity of M. hyorhinis and the conversion of dThd, FdUrd, 5′DFUR and TFT to thymine, 5FU, 5FU or TF-thymine respectively were measured by high-pressure liquid chromatography (HPLC) analysis. MCF-7 and MCF-7/HYOR cells were seeded at a density of 20,000 cells/cm^2 in DMEM with 10% FBS. Four days later, the medium was collected and cleared by centrifugation at 1,400 rpm. For some experiments, the medium of MCF-7/HYOR cells was filtered using a 0.1 μm micro filter (Acrodisc syringe filter, PALL Corporation, East Hills, N.Y.) to remove the mycoplasmas from the medium. 600 μl of the medium was incubated with 200 μM of substrate (dThd, 5′DFUR, TFT or FdUrd) at 37° C. in the presence or absence of 10 μM TPi. At different time points (i.e. 0, 15, 30, 60, 120 minutes and 16 hours), 100 μl aliquots were withdrawn, transferred to Eppendorf tubes and heated at 95° C. for 3 min. Next, the samples were rapidly cooled on ice, exposed for 20 min to 200 μl ice-cold methanol and cleared by centrifugation at 15,000 rpm for 15 minutes. As a positive control, an enzyme activity assay with E. coli TP (Sigma) was performed. For this reaction, 0.025 U of TP were incubated with 200 μM of substrate in TP-buffer (10 mM Tris-HCl, pH 7.6, 1 mM EDTA, 2 mM potassium phosphate and 150 mM NaCl) in a total volume of 600 μl. Aliquots of 100 μl were withdrawn from the reaction mixture at several time points and treated as described above. The nucleosides were separated from their nucleobases on a reversed-phase RP-8 column (Merck, Darmstadt, Germany) and quantified by HPLC analysis (Aliance 2690, Waters, Milford, Mass.). The separation was performed by a linear gradient from 100% buffer B (50 mM NaH2PO4 and 5 mM heptane sulfonic acid, pH 3.2), to 20% buffer B and 80% acetonitrile. Retention times of thymine and thymidine were respectively 5.1 and 10.8 minutes. UV-based detection of all nucleosides was performed at 267 nm.

[2] = test system: MCF-7/HYOR cell cultures; test: Nucleoside metabolism experiments, distribution of drug-derived radiolabel in MCF-7/HYOR cell cultures; type: cell-based, human; settings: MCF-7/HYOR; for % of drug-derived radiolabel, In medium, Base / % of drug-derived radiolabel, In medium, Nucleoside / % of drug-derived radiolabel, In the cytosol of the cells, 5′-diphosphate / % of drug-derived radiolabel, In the cytosol of the cells, 5′-monophosphate / % of drug-derived radiolabel, In the cytosol of the cells, 5′-triphosphate / % of drug-derived radiolabel, In the cytosol of the cells, Nucleoside/nucleobase / % of drug-derived radiolabel, Incorporatio into DNA/RNA: 1 μCi, 16 h; for Increase of 5′-monophosphate levels in the presence of TPi: with versus without TPi
[3] = test system: MCF-7/HYOR cells; test: Nucleotide incorporation assay, MCF-7/HYOR compared with MCF-7 cells; type: cell-based, human; settings: 1 μCi radiolabeled compound; FIG. 4
Procedure: MCF-7 and MCF-7/HYOR cells were seeded at 10,000 cells/cm. After 48 hours, cells were treated with 1 μCi of ^3H-labeled nucleoside with or without 10 μM TPi. 16 h later, the medium was removed and the cells were washed twice with PBS. Next, the cells were trypsinized, transferred to Eppendorf tubes and centrifuged for 10 minutes at 1,400 rpm. The pellet was resuspended in 1 ml absolute ice-cold methanol and kept on ice for 20 minutes. After centrifugation for 20 minutes at 13,000 rpm the pellet was washed twice with methanol, resuspended in methanol and transferred to scintillation vials containing 9 ml of Ready safe liquid scintillation reagent (‘Hisafe 3’, Perkin Elmer, Waltham, Mass.). The radioactivity was measured by a Liquid scintillation analyzer (2300 TR, Packard, Canberra, Australia).

[4] = test system: M. hyorhinis TP; test: TP activity in the medium of MCF-7/HYOR cell cultures (HPLC, conversion of nucleoside to free base); type: biochemical, Mycoplasma hyorhinis; settings: 200 μM substrate, 37° C.
Procedure: as §1, with “Retention times of thymine and thymidine were respectively 5.1 and 10.8 minutes.” left out

T1 sequence (P07650 whole entry): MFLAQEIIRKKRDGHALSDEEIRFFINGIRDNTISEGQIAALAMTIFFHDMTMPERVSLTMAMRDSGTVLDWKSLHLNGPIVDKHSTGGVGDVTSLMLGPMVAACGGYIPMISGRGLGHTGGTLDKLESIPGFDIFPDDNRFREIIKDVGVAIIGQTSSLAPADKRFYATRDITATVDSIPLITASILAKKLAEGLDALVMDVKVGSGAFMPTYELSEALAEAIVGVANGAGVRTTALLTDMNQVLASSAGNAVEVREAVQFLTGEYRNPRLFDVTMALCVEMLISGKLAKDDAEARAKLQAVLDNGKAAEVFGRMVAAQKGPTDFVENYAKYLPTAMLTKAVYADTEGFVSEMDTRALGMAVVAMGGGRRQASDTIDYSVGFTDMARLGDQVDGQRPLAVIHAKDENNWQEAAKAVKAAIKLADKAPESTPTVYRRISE

| SMILES | Percent conversion of nucleoside to the free pyrimidine base, recombinant E. coli TP ([1]; 2 hours) | Percent conversion of nucleoside to the free pyrimidine base, recombinant E. coli TP ([1]; 16 hours) | % of drug-derived radiolabel, In medium, Base [2] | % of drug-derived radiolabel, In medium, Nucleoside [2] | % of drug-derived radiolabel, In the cytosol of the cells, 5′-diphosphate [2] | % of drug-derived radiolabel, In the cytosol of the cells, 5′-monophosphate [2] | % of drug-derived radiolabel, In the cytosol of the cells, 5′-triphosphate [2] | % of drug-derived radiolabel, In the cytosol of the cells, Nucleoside/nucleobase [2] | % of drug-derived radiolabel, Incorporatio into DNA/RNA [2] | Share incorporated into the nucleic acids in the presence of TPi [2] | Increase of 5′-monophosphate levels in the presence of TPi [2] | Incorporation into nucleic acids, infected versus uninfected MCF-7 cells (in words) [3] | Percent conversion of nucleoside to the free pyrimidine base in MCF-7/HYOR medium ([4]; 2 hours) | Percent conversion of nucleoside to the free pyrimidine base in MCF-7/HYOR medium ([4]; 16 hours) | Reduction of incorporation into nucleic acids in infected MCF-7/HYOR cells in comparison with uninfected MCF-7 cells [3] |
| --- | --- | --- | --- | --- | --- | --- | --- | --- | --- | --- | --- | --- | --- | --- | --- |
| O=c1[nH]c(=O)n([C@H]2C[C@H](O)[C@@H](CO)O2)cc1F [FdUrd, 5-fluoro-2′-deoxyuridine] | 57% | 63% | 49.5% | 33.2% | 0.9% | 3.5% | 0.3% | 11.6% | 1.0% | almost no | 18 fold | did not affect | 43% | 77% |  |
| O=c1[nH]c(=O)n([C@H]2C[C@H](O)[C@@H](CO)O2)cc1C(F)(F)F [TFT, 5-trifluorothymidine] | 48% | 85% | 56.7% | 23.3% | 0.6% | 6.1% | 0.6% | 11.0% | 1.8% | 66% | 2.7 fold |  | 8% | 55% | 40 fold |
